The text below walks through data of patent US6680367B1, “Fluorescent CRF receptor-binding peptides” (Advanced Bioconcept Company, priority 1995, dated 2004).

Peptide text beside a SMILES is read from it. GABA = NCCCC(=O)O

Common to all, as to type: binding
In one assay the test system is CRF1, CRF2. Kind of assay: Displacement of 125I labeled CRF from CRF receptor subtypes, recombinant cells. The following applies: Receptor CRF1, CRF2 (one value printed for both), displacing radiolabeled CRF. How it is done:
(§1) Determination of IC50 for labeled peptides. […] In order to fully dissolve the peptide, the sample was reconstituted in 20 uL DMSO, vortexing well to ensure that all powder was completely dissolved, and then adding 0.48 mL of double distilled water. The stock solution was aliquoted to avoid repeated freezing and thawing of peptide. Unused aliquots were stored at −20° C. (protected from light) for maximum 24 hr.
(§2) Data for native and labeled peptides were analyzed by non-linear curve fitting. This included statistical evaluation of fit and calculation of IC50 and Ki values.
In general terms: In a radioligand displacement assay an active substance lowers the binding of a labelled ligand.

Another assay has as its target T1, CRF2 (Homo sapiens, UniProt Q13324).
T1 construct: expressed in transfected cells
T1 sequence (Q13324 1-411): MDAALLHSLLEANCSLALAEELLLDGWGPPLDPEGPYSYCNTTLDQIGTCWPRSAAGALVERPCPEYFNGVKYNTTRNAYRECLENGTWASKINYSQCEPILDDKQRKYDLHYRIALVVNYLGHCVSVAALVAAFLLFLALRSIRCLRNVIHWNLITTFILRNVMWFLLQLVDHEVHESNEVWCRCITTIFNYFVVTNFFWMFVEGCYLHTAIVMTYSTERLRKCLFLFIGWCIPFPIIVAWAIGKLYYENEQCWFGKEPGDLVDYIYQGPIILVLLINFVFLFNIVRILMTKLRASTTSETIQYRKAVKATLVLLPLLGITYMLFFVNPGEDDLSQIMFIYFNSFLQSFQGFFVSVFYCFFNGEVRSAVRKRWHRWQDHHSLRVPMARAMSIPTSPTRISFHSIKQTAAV
Kind of assay: Displacement of 125I labeled sauvagine from CRF2, recombinant cells. How it is done:
as §1, §2

The target of another assay is T2, CRF1 (Homo sapiens, UniProt P34998).
T2 construct: expressed in transfected cells
T2 sequence (P34998 24-415): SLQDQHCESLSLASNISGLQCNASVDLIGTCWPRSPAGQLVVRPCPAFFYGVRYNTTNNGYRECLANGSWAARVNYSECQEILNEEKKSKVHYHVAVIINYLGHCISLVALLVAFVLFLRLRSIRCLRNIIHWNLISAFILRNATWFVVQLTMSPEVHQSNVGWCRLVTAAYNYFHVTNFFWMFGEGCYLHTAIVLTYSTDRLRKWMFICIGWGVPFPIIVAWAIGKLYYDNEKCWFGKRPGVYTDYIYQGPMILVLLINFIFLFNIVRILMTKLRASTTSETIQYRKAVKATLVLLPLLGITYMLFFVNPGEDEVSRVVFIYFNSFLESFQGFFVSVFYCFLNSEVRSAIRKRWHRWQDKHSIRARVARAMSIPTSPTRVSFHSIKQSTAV
Kind of assay: Displacement of 125I labeled sauvagine from CRF1, recombinant cells. As for the experimental part: as §1, §2

One may read the Ki as the equilibrium dissociation constant of an inhibitor or competing ligand from its target.

For “fluoresceinyl-sauvagine ({Fluorescein-GABA}-GPPISIDLSLELLRKMIEIEKQEKEKQQAANNRLLLDTI-NH2; listed as Xenopus tropicalis) [Fluo*-sauvagine]”, the inhibitory constant (Ki) in the assay with CRF1, CRF2 is 3.8 nM. Turning to `CC[C@H](C)[C@H](NC(=O)[C@H](CO)NC(=O)[C@H](CC(C)C)NC(=O)[C@H](CO)NC(=O)[C@@H]1CCCN1C(=O)[C@H](CC(N)=O)NC(=O)[C@@H](N)CC(=O)O)C(=O)N[C@@H](CC(=O)O)C(=O)N[C@@H](CC(C)C)C(=O)N[C@H](C(=O)N[C@@H](Cc1ccccc1)C(=O)N[C@@H](Cc1cnc[nH]1)C(=O)N[C@@H](CC(C)C)C(=O)N[C@@H](CC(C)C)C(=O)N[C@@H](CCCNC(=N)N)C(=O)N[C@H](C(=O)N[C@@H](CC(C)C)C(=O)N[C@@H](CC(C)C)C(=O)N[C@@H](CCC(=O)O)C(=O)N[C@@H](CC(C)C)C(=O)N[C@@H](C)C(=O)N[C@@H](CCCNC(=N)N)C(=O)N[C@H](C(=O)N[C@@H](CCC(N)=O)C(=O)N[C@@H](CO)C(=O)N[C@@H](CCC(N)=O)C(=O)N[C@@H](CCCNC(=N)N)C(=O)N[C@@H](CCC(=O)O)C(=O)N[C@@H](CCCNC(=N)N)C(=O)N[C@@H](C)C(=O)N[C@@H](CCC(=O)O)C(=O)N[C@@H](CCC(N)=O)C(=O)N[C@@H](CC(N)=O)C(=O)N[C@@H](CCCNC(=N)N)C(=O)N[C@H](C(=O)N[C@H](C(=O)N[C@@H](Cc1ccccc1)C(=O)N[C@@H](CC(=O)O)C(=O)N[C@@H](CO)C(=O)N[C@H](C(N)=O)C(C)C)[C@@H](C)CC)[C@@H](C)CC)[C@@H](C)O)[C@@H](C)O)[C@@H](C)O` [urocortin] (H-DNPSLSIDLTFHLLRTLLELARTQSQRERAEQNRIIFDSV-NH2), the Ki was determined as 4.3 nM on CRF2 and 0.64 nM at CRF1. Take `CC[C@H](C)[C@H](NC(=O)[C@@H](NC(=O)[C@H](CC(=O)O)NC(=O)[C@H](CC(C)C)NC(=O)[C@H](CC(C)C)NC(=O)[C@H](CC(C)C)NC(=O)[C@H](CCCNC(=N)N)NC(=O)[C@H](CC(N)=O)NC(=O)[C@H](CC(N)=O)NC(=O)[C@H](C)NC(=O)[C@H](C)NC(=O)[C@H](CCC(N)=O)NC(=O)[C@H](CCC(N)=O)NC(=O)[C@H](CCCCN)NC(=O)[C@H](CCC(=O)O)NC(=O)[C@H](CCCCN)NC(=O)[C@H](CCC(=O)O)NC(=O)[C@H](CCC(N)=O)NC(=O)[C@H](CCCCN)NC(=O)[C@H](CCC(=O)O)NC(=O)[C@@H](NC(=O)[C@H](CCC(=O)O)NC(=O)[C@@H](NC(=O)[C@H](CCSC)NC(=O)[C@H](CCCCN)NC(=O)[C@H](CCCNC(=N)N)NC(=O)[C@H](CC(C)C)NC(=O)[C@H](CC(C)C)NC(=O)[C@H](CCC(=O)O)NC(=O)[C@H](CC(C)C)NC(=O)[C@H](CO)NC(=O)[C@H](CC(C)C)NC(=O)[C@H](CC(=O)O)NC(=O)[C@@H](NC(=O)[C@H](CO)NC(=O)[C@@H](NC(=O)[C@@H]1CCCN1C(=O)[C@@H]1CCCN1C(=O)CNC(=O)[C@@H]1CCC(=O)N1)[C@@H](C)CC)[C@@H](C)CC)[C@@H](C)CC)[C@@H](C)CC)[C@@H](C)O)C(N)=O` [Sauvagine, sauvagine]: in the assay on CRF1, CRF2, the inhibition constant Ki stood at 7.9 nM.
